Where two headings read alike, the source gives them in different places. Values belong to the molecule of their own block, whether it stands above or below them.
What was measured:
[1] = Inhibition of ovalbumin (Ova) oxidative degradation by ClO radical; conditions: for Inhibitory action toward proteolysis by ClO radical: Ova; for Inhibition effect on degradation of protein due to ClO radical: 30 min, pH 7.2; for Rank of ClO•-scavenging strength (in words): complete inhibition of protein degradation by 10 mM ClO•, comparison of Table 3; for ClO radical inhibitory concentration: concentration that completely inhibits oxidative degradation of protein by 10 mM ClO•
Description: (§1) ClO•, OH•, and NO3• were prepared as three typical active oxygen species produced in the body. Clo• was prepared using a method wherein sodium hypochlorite was diluted to a pH 6.5 with distilled water, OH• by a partially modified Fenton method (B. Halliwell, et al., Analytical Biochmistry, No. 165, p. 215-219, 1987), and NO3• by a modified quenching flow reactor method (R. Radi, et al., Journal of Biological Chemistry, Vol. 266, p. 4244-4250, 1991). Next, Ova was dissolved in pH 7.2 buffered physiological saline to a concentration of 2.5 mg/mL, each concentration of antioxidant was added at a volume ratio of 10:1 with respect to the protein solution, the solution was let stand for 30 min at room temperature, each concentration of active oxygen was added in the same manner at a volume ratio of 10:1 with respect to protein solution, and ClO• oxidation was performed for 30 min at 37° C., OH• oxidation for 60 min at 37° C., and NO3 oxidation for 120 min at 37° C. After the reaction, sodium dodecylsulfate-polyacrylamide gel electrophoresis (SDS-PAGE) was performed on each sample, the gel was stained with Coomassie blue R250, and the Ova degradation inhibition rate was calculated from the densitometer reading. An accurate degradation inhibition rate was calculated using the following formula from the proteolytic inhibition activity obtained by performing GPC-HPLC using a TSKG-3,000SW column directly on the reacted samples.
(§2) Using the same test methods as described in (1) above, a comparison of inhibitory activity by various natural extracts on the Ova degradation by active oxygen was performed. The concentrations of the natural extracts tested were 5 mg/mL as solids.
The strength of antioxidant activity between peptides with antioxidant activity and sulfur-containing amino acids was compared with respect to ClO•, and between various antioxidants with antioxidant activity with respect to OH•.

[2] = Inhibition of ovalbumin (Ova) oxidative degradation by OH radical; conditions: for Inhibitory action toward proteolysis by OH radical: Ova; for OH radical inhibitory concentration: concentration that completely inhibits the proteolytic action of 10 mM OH•; for Inhibition effect on degradation of protein due to OH radical: 60 min, pH 7.2
Description: as §1, §2

[3] = Inhibition of ovalbumin (Ova) oxidative degradation by ONOO radical; conditions: for Concentration that completely inhibited the oxidative effect of ONOO•: 5 mM ONOO•; for Inhibitory action toward proteolysis by ONOO radical: Ova; for Inhibition effect on degradation of protein due to ONOO radical: 120 min, pH 7.2
Description: as §1, §2

human red blood cells = assay: Microchannel (MC) transit capability of human red blood cells damaged by active oxygen; assay type: cell-based
Description: A microchannel (hereinafter, MC), which is a capillary model, is a device that measures hemorheology, i.e., the capability of blood to circulate through capillaries. Factors affecting hemorheology include meals, oxidative stress, etc. In the present invention the effects of the three active oxygen species produced in the body on the MC transit capability of human red blood cells were tested, and the effectiveness of various antioxidants in preventing the harmful effects of active oxygen were compared.
Next, the effectiveness of various antioxidants in preventing the MC transit damage due to various active oxygen species was measured using red blood cells. […] (2.5 mM) as the ONOO•-scavenger were used. These three types were mixed together and used as the antioxidant mixture.
A microchannel (MC), which is a capillary model, is a device that measures hemorheology, i.e., the capability of blood to circulate through capillaries. Factors effecting hemorheology include meals, oxidative stress, etc. In the present Example, the effects of the three active oxygen species produced in the body on the MC transit capability of human red blood cells were tested.
For the test method, blood from healthy human volunteers was subjected a Ficoll-Pague centrifuge (made by Amersham-Pharmacia Biotech) to separate a red blood cell fraction, and the MC transit time of the red blood (final concentration of hematocrit is 10%) treated by various active oxygen species was measured by an MC FAN KH-3A (channel width 7 μm, MC Laboratory, Inc.).

[4] = tested on: glycated hemoglobin (HbAlc) in the blood; assay: Lowering of glycated hemoglobin in the blood of diabetic model GK rats; assay type: in vivo; conditions: 100 mg/kg orally for 28 days, FIG. 5
Description: Using the diabetes model animal GK rats (Y. Ihara, et al. FEBS Letters, Vol. 473, p. 24-26, 2000), the effectiveness of single doses of various antioxidants and combined doses of antioxidants in lowering the level of glycated hemoglobin (HbAlc) in the blood was compared.
As the ClO•-scavenger 200 mg/kg of anserine-carnosine mixture derived from chicken extract, as the OH•-scavenger wheat grass extract (total content of caffeic acid analogues 10 mg/kg), as the ONOO•-scavenger 100 mg/kg of V.C., and a composition containing all three antioxidants were administered orally to the GK rats for 28 days, and the blood HbAlc levels were measured at the end of dosing.

cholesterol in the blood = conditions: known from the literature (Herrera-Arellano 2004; Kim 2003); cited from earlier work
[5] = antioxidant 5 mM, 10 mM ClO radical
[6] = antioxidant 5 mM, 10 mM OH radical
[7] = antioxidant 20 μM, 10 mM ClO radical
[8] = antioxidant 20 μM, 10 mM OH radical
[9] = antioxidant 50 μM, 10 mM ClO radical
[10] = antioxidant 50 μM, 10 mM OH radical

Molecule: O=C1O[C@H]([C@@H](O)CO)C(O)=C1O [Vitamin C, L-ascorbic acid]
Inhibitory action toward proteolysis by ClO radical [1, 5]: 67%
Inhibitory action toward proteolysis by OH radical [2, 6]: 0%
Concentration that completely inhibited the oxidative effect of ONOO• [3]: 1 mM
Inhibitory action toward proteolysis by ONOO radical ([3]; antioxidant 5 mM): 100%
Inhibition of red blood cell MC transit damage due to ONOO• (human red blood cells; hematocrit 10%, 5 mM ONOO radical, FIG. 10): inhibited the damage
Decrease of blood HbAlc level [4]: 0.3%

Concentration showing degradation inhibitory activity against ONOO• [3]: 10 µM
Molecule: CC1=C(/C=C/C(C)=C/C=C/C(C)=C/C=C/C=C(C)/C=C/C=C(C)/C=C/C2=C(C)CCCC2(C)C)C(C)(C)CCC1 [B-carotene, β-carotene]
Inhibitory action toward proteolysis by ClO radical [1, 7]: 38%
Inhibitory action toward proteolysis by OH radical [2, 8]: 100%
OH radical inhibitory concentration [2]: 0.5 µM
Inhibitory action toward proteolysis by ONOO radical ([3]; antioxidant 20 μM): 74%

Molecule: O=C1O[C@H]([C@@H](O)CO)C([O-])=C1O.[Na+] [sodium V.C.]
Concentration that completely inhibited the oxidative effect of ONOO• [3]: 1 mM

Inhibition effect on degradation of protein due to ClO radical ([1]; 5 mM): 100
Inhibition effect on degradation of protein due to OH radical ([2]; 5 mM): 15
Inhibition effect on degradation of protein due to ONOO radical ([3]; 5 mM): 22
Molecule: N[C@@H](CS)C(=O)O [Cysteine, L-cysteine]
Rank of ClO•-scavenging strength (in words) [1]: most potent
ClO radical inhibitory concentration [1]: 2.5 mM

Molecule: Cc1c(C)c2c(c(C)c1O)CC[C@@](C)(CCC[C@H](C)CCC[C@H](C)CCCC(C)C)O2 [Vitamin E, α-tocopherol]
Inhibitory action toward proteolysis by ClO radical [1, 5]: 0%
Inhibitory action toward proteolysis by OH radical [2, 6]: 98%
Rank of OH•-scavenging strength (in words) ([2]; complete inhibition of proteolysis by 10 mM OH•, comparison of Table 4): weakest antioxidant activity
OH radical inhibitory concentration [2]: 2500 µM
Antioxidant activity against OH• (inhibition of proteolysis) relative to astaxanthin ([2]; fraction of the activity of the carotenoid astaxanthin): approximately 1/5000
Inhibitory action toward proteolysis by ONOO radical ([3]; antioxidant 5 mM): 22%

Concentration showing degradation inhibitory activity against ONOO• [3]: 500 µM
Molecule: Oc1cc(O)c2c(c1)OC(c1ccc(O)c(O)c1)C(O)C2 (centres unmarked) [Catechins, catechins]
Inhibitory action toward proteolysis by ClO radical [1, 9]: 0%
Inhibitory action toward proteolysis by OH radical [2, 10]: 100%
OH radical inhibitory concentration [2]: 2.5 µM
Inhibitory action toward proteolysis by ONOO radical ([3]; antioxidant 50 μM): 58%

Molecule: N[C@@H](CCC(=O)N[C@@H](CS)C(=O)NCC(=O)O)C(=O)O [Reduced glutathione, reduced glutathione]
Rank of ClO•-scavenging strength (in words) [1]: most potent
ClO radical inhibitory concentration [1]: 2.5 mM

Molecule: O=c1c(O)c(-c2ccc(O)c(O)c2)oc2cc(O)cc(O)c12 [Quercetin, quercetin]
Inhibitory action toward proteolysis by ClO radical [1, 9]: 5%
Inhibitory action toward proteolysis by OH radical [2, 10]: 100%
OH radical inhibitory concentration [2]: 2.5 µM
Inhibitory action toward proteolysis by ONOO radical ([3]; antioxidant 50 μM): 16%

Molecule: CC1=C(/C=C/C(C)=C/C=C/C(C)=C/C=C/C=C(C)/C=C/C=C(C)/C=C/C2=C(C)C(=O)[C@@H](O)CC2(C)C)C(C)(C)C[C@H](O)C1=O [Astaxanthin, astaxanthin]
Inhibitory action toward proteolysis by ClO radical [1, 7]: 24%
Inhibitory action toward proteolysis by OH radical [2, 8]: 100%
OH radical inhibitory concentration [2]: 0.5 µM
Inhibitory action toward proteolysis by ONOO radical ([3]; antioxidant 20 μM): 28%

Inhibition of Ova oxidative degradation by ClO• (in words) ([1]; FIG. 1, 10 mM ClO radical, β-carotene 20 μM, EGCG 500 μM): faint inhibitory activity
Concentration at which oxidative degradation of Ova by OH• was completely inhibited ([2]; FIG. 1, 10 mM OH radical, tested concentration): 5 µM
Concentration showing degradation inhibitory activity against ONOO• ([3]; FIG. 1, said to exceed physiologically relevant concentrations): 500 µM
Molecule: O=C(O[C@@H]1Cc2c(O)cc(O)cc2O[C@@H]1c1cc(O)c(O)c(O)c1)c1cc(O)c(O)c(O)c1 [Epigallocatechin gallate, epigallocatechin gallate]
OH radical inhibitory concentration [2]: 2.5 µM
Inhibition of red blood cell MC transit damage due to OH• (human red blood cells; antioxidant 50 μM, FIG. 4): completely inhibited

Molecule: O=C(O)/C=C/c1ccc(O)c(O)c1 [Caffeic acid, caffeic acid]
OH radical inhibitory concentration [2]: 4.0 µM
OH radical inhibitory concentration ([2]; listed as caffeic acid): 2.5 µM

Inhibition effect on degradation of protein due to ClO radical ([1]; 5 mM): 100
Inhibition effect on degradation of protein due to OH radical ([2]; 5 mM): 20
Inhibition effect on degradation of protein due to ONOO radical ([3]; 5 mM): 20
Molecule: CC(=O)N[C@@H](CS)C(=O)O [N-acetyl-L-cysteine]
Rank of ClO•-scavenging strength (in words) [1]: most potent
ClO radical inhibitory concentration [1]: 2.5 mM

Molecule: O=C(/C=C/c1ccc(O)c(O)c1)O[C@@H]1C[C@](O)(C(=O)O)C[C@@H](O)[C@H]1O [Chlorogenic acid, chlorogenic acid]
Effect of lowering the level of cholesterol in the blood (in words) (cholesterol in the blood): have an effect of lowering the level of cholesterol in the blood

Molecule: alliin
ClO radical inhibitory concentration [1]: 7.5 mM

Molecule: COc1cc(/C=C/C(=O)O)ccc1O [Ferulic acid, ferulic acid]
Inhibitory action toward proteolysis by ClO radical [1, 9]: 7%
Inhibitory action toward proteolysis by OH radical [2, 10]: 100%
OH radical inhibitory concentration [2]: 2.5 µM
Inhibitory action toward proteolysis by ONOO radical ([3]; antioxidant 50 μM): 34%
Effect of lowering the level of cholesterol in the blood (in words) (cholesterol in the blood): have an effect of lowering the level of cholesterol in the blood

Molecule: N[C@@H](CS(=O)(=O)O)C(=O)O [Cysteic acid, cysteic acid]
ClO radical inhibitory concentration [1]: 7.5 mM

Inhibition effect on degradation of protein due to ClO radical ([1]; 5 mM): 100
Inhibition effect on degradation of protein due to OH radical ([2]; 5 mM): 62
Inhibition effect on degradation of protein due to ONOO radical ([3]; 5 mM): 45
Molecule: CSCC[C@H](N)C(=O)O [Methionine, methionine]
ClO radical inhibitory concentration [1]: 5.0 mM

Inhibition effect on degradation of protein due to ClO radical ([1]; 50 μM): 0
Inhibition effect on degradation of protein due to OH radical ([2]; 50 μM): 100
Inhibition effect on degradation of protein due to ONOO radical ([3]; 50 μM): 0
Molecule: COC1=C(OC)C(=O)C(C/C=C(\C)CC/C=C(\C)CC/C=C(\C)CC/C=C(\C)CC/C=C(\C)CC/C=C(\C)CC/C=C(\C)CC/C=C(\C)CC/C=C(\C)CCC=C(C)C)=C(C)C1=O [CoQ10]
Inhibition of red blood cell MC transit damage due to OH• (human red blood cells; hematocrit 10%, 10 mM OH radical, FIG. 10): inhibited the damage

Molecule: NCCC(=O)N[C@@H](Cc1cnc[nH]1)C(=O)O [Carnosine, carnosine]
ClO radical inhibitory concentration [1]: 5.0 mM

Molecule: Cn1cncc1C[C@H](NC(=O)CCN)C(=O)O [Anserine, anserine]
ClO radical inhibitory concentration [1]: 5.0 mM

Source: patent US7727961B2, “Antioxidant constituents” (Tokai Bussan Co., Ltd., priority 2004, dated 2010)
